# Values of other authors as cited in patent publication US20060182688A1, “Metronidazole-based tinted topical pharmaceutical compositions” (GALDERMA S.A., priority 2003, published 2006).
# Tested on: rosacea
compound,measurement,setting,value
"Cc1ncc([N+](=O)[O-])n1CCO [metronidazole, 1-(2-hydroxyethyl)-2-methyl-5-nitroimidazole]",effect on erythema,200 mg twice a day,ineffective
same,effect on the papules and pustules of rosacea,200 mg twice a day,had therapeutic effects
same,"action on the clinical signs such as erythema, telangiectasia or redness",rosacea,no action
same,effect against the papules and pustules,rosacea,effective
same,effect on the inflammatory lesions,rosacea,effectively improves
